Test results from patent US20140329870A1, “COMPOSITIONS COMPRISING ISOSORBIDE MONOESTERS AND ISOTHIAZOLINONES” (CLARIANT INTERNATIONAL LTD., priority 2011, published 2014).
Converted amounts (≈) assume the structure as drawn. Like-named read-outs stand apart in the source and are kept apart here. Each block holds one molecule with its values, some of them ahead of it.

Experiments:
[1] = system: bacteria, fungi and yeasts; conditions: general statement, no test data given, cited from earlier work
Enterobacter aerogenes = assay: Minimum inhibitory concentration (MIC) in agar, antimicrobial efficacy; type: cell-based; conditions: CASO agar pH 7
Experimental: (§1) Below, the antimicrobial efficacy of a composition according to the invention consisting of 50% by weight of isorbide caprylate 1 and 50% by weight of a 2% by weight strength solution of methylisothiazolinone in water against bacteria, fungi and yeasts is examined (hereinbelow, the composition is referred to as “composition A”). For the tests with bacteria, composition A was diluted with butyl polyglycol and then, at 50° C., added to liquid CASO agar (casein-peptone agar) buffered to pH 7 (+/−0.2) in various concentrations (hereinbelow referred to as compositions B1, B2, etc.). For the tests with fungi and yeasts, composition A was diluted with butyl polyglycol and then added to liquid Sabouraud 4% dextrose agar buffered to pH 5.6 (+/−0.2) in various concentrations (hereinbelow referred to as compositions PH1, PH2, etc.). The compositions B1, B2, etc. and PH1, PH2 etc. were each poured into Petri dishes and each inoculated with identical amounts of bacteria, fungi and yeasts. The minimum inhibitory concentration (MIC) is the concentration at which inhibition of the growth of the bacteria, fungi and yeasts in the compositions B1, B2, etc. and PH1, PH2, etc. occurs.
(§2) The minimum inhibitory concentrations for the pure substances isosorbide caprylate 1 and methylisothiazolinone were determined analogously.
(§3) The values determined for the minimum inhibitory concentrations “MIC mixture”, stated in Table 1 below, are based on the concentrations of composition A.
(§4) The values determined for the minimum inhibitory concentrations “QA” and “QB”, stated in Table 1 below, have already been corrected for the dilution effect of the water and the butyl polyglycol.
(§5) Kull et al., Applied Microbiology 1961, 9, 538 using the formula below: […]
(§6) where • Qa is the minimum inhibitory concentration of isosorbide caprylate 1 in the mixture employed, • QA is the minimum inhibitory concentration of isosorbide caprylate 1, • Qb is the minimum inhibitory concentration of methylisothiazolinone in the mixture employed and • QB is the minimum inhibitory concentration of methylisothiazolinone.
(§7) The values for Qa and Qb are determined from the values for the mixtures (“MIC mixture”) by multiplying the minimum inhibitory concentrations determined for Qa with the factor 0.5 and for Qb with the factor 0.01, because of the proportions of the ingredients—50% by weight of isosorbide caprylate 1 and 50% by weight of a 2% by weight strength solution of methylisothiazolinone in water—in composition A according to the invention examined.
(§8) If an SE value >1 is obtained, an antagonistic effect is present.

Escherichia coli = assay: as above; type: cell-based; conditions: CASO agar pH 7
Experimental: as §1, §2, §3, §4, §5, §6, §7, §8

Penicillium minioluteum = assay: as above; type: cell-based; conditions: Sabouraud 4% dextrose agar pH 5.6
Experimental: as §1, §2, §3, §4, §5, §6, §7, §8

Aspergillus brasiliensis = assay: as above; type: cell-based; conditions: Sabouraud 4% dextrose agar pH 5.6
Experimental: as §1, §2, §3, §4, §5, §6, §7, §8

Citrobacter freundii = assay: as above; type: cell-based; conditions: CASO agar pH 7
Experimental: as §1, §2, §3, §4, §5, §6, §7, §8

Pseudomonas aeruginosa = assay: as above; type: cell-based; conditions: CASO agar pH 7
Experimental: as §1, §2, §3, §4, §5, §6, §7, §8

Pseudomonas oleovorans = assay: as above; type: cell-based; conditions: CASO agar pH 7
Experimental: as §1, §2, §3, §4, §5, §6, §7, §8

Klebsiella pneumoniae = assay: as above; type: cell-based; conditions: CASO agar pH 7
Experimental: as §1, §2, §3, §4, §5, §6, §7, §8

Aspergillus terreus = assay: as above; type: cell-based; conditions: Sabouraud 4% dextrose agar pH 5.6
Experimental: as §1, §2, §3, §4, §5, §6, §7, §8

Staphylococcus aureus = assay: as above; type: cell-based; conditions: CASO agar pH 7
Experimental: as §1, §2, §3, §4, §5, §6, §7, §8

Fusarium solani = assay: as above; type: cell-based; conditions: Sabouraud 4% dextrose agar pH 5.6
Experimental: as §1, §2, §3, §4, §5, §6, §7, §8

Candida albicans = assay: as above; type: cell-based; conditions: Sabouraud 4% dextrose agar pH 5.6
Experimental: as §1, §2, §3, §4, §5, §6, §7, §8

Penicillium funicolosium = assay: as above; type: cell-based; conditions: Sabouraud 4% dextrose agar pH 5.6
Experimental: as §1, §2, §3, §4, §5, §6, §7, §8

Proteus vulgaris = assay: as above; type: cell-based; conditions: CASO agar pH 7
Experimental: as §1, §2, §3, §4, §5, §6, §7, §8

[2] = system: bacteria, fungi and yeasts; assay: Antimicrobial activity, overall statements on the test series; type: cell-based
Experimental: as §1, §2, §5

[3] = in composition A, MIC mixture x 0.01
[4] = pure substance, corrected for dilution

Molecule: CCCCCCCC(=O)O [caprylic acid, octanoic acid]
antimicrobial activity (in words) ([1]; at a pH of 6 or above): no antimicrobial activity
antimicrobial efficacy (in words) [1]: antimicrobially effective

MIC (Enterobacter aerogenes; Klebsiella aerogenes, Table 2): 10000 µg/mL (≈ 68.4 mM)
MIC (Escherichia coli; Escherichia coli, Table 2): 10000 µg/mL (≈ 68.4 mM)
MIC (Penicillium minioluteum; Talaromyces minioluteus, Table 2): 10000 µg/mL (≈ 68.4 mM)
MIC (Aspergillus brasiliensis; Aspergillus brasiliensis, Table 2): 10000 µg/mL (≈ 68.4 mM)
MIC (Citrobacter freundii; Citrobacter freundii, Table 2): 10000 µg/mL (≈ 68.4 mM)
MIC (Pseudomonas aeruginosa; Pseudomonas aeruginosa, Table 2): 10000 µg/mL (≈ 68.4 mM)
MIC (Pseudomonas oleovorans; Ectopseudomonas oleovorans, Table 2): 10000 µg/mL (≈ 68.4 mM)
MIC (Klebsiella pneumoniae; Klebsiella pneumoniae, Table 2): 10000 µg/mL (≈ 68.4 mM)
MIC (Aspergillus terreus; Aspergillus terreus, Table 2): 10000 µg/mL (≈ 68.4 mM)
MIC (Staphylococcus aureus; Staphylococcus aureus, Table 2): 10000 µg/mL (≈ 68.4 mM)
MIC (Fusarium solani; Fusarium solani, Table 2): 10000 µg/mL (≈ 68.4 mM)
MIC (Candida albicans; Candida albicans, Table 2): 10000 µg/mL (≈ 68.4 mM)
MIC (Penicillium funicolosium; Penicillium, Table 2): 10000 µg/mL (≈ 68.4 mM)
MIC (Proteus vulgaris; Proteus vulgaris, Table 2): 10000 µg/mL (≈ 68.4 mM)
Molecule: O[C@@H]1CO[C@H]2[C@@H]1OC[C@@H]2O [isosorbide]
antimicrobial activity (in words) ([2]; as shown by the results of Table 2): neither isosorbide nor isosorbide dicaprylate are antimicrobially active

Molecule: Cn1sccc1=O [methylisothiazolinone]
Qb, calc. (MIC of methylisothiazolinone in the mixture employed) (Enterobacter aerogenes; [3]): 15 ppm
QB, meas. (MIC of methylisothiazolinone) (Enterobacter aerogenes; [4]): 15 ppm
Qb, calc. (MIC of methylisothiazolinone in the mixture employed) (Escherichia coli; [3]): 10 ppm
QB, meas. (MIC of methylisothiazolinone) (Escherichia coli; [4]): 10 ppm
Qb, calc. (MIC of methylisothiazolinone in the mixture employed) (Penicillium minioluteum; [3]): 7.5 ppm
QB, meas. (MIC of methylisothiazolinone) (Penicillium minioluteum; [4]): 100 ppm
Qb, calc. (MIC of methylisothiazolinone in the mixture employed) (Aspergillus brasiliensis; [3]): 10 ppm
QB, meas. (MIC of methylisothiazolinone) (Aspergillus brasiliensis; [4]): 100 ppm
Qb, calc. (MIC of methylisothiazolinone in the mixture employed) (Citrobacter freundii; [3]): 10 ppm
QB, meas. (MIC of methylisothiazolinone) (Citrobacter freundii; [4]): 15 ppm
Qb, calc. (MIC of methylisothiazolinone in the mixture employed) (Pseudomonas aeruginosa; [3]): 20 ppm
QB, meas. (MIC of methylisothiazolinone) (Pseudomonas aeruginosa; [4]): 40 ppm
Qb, calc. (MIC of methylisothiazolinone in the mixture employed) (Pseudomonas oleovorans; [3]): 5 ppm
QB, meas. (MIC of methylisothiazolinone) (Pseudomonas oleovorans; [4]): 5 ppm
Qb, calc. (MIC of methylisothiazolinone in the mixture employed) (Klebsiella pneumoniae; [3]): 15 ppm
QB, meas. (MIC of methylisothiazolinone) (Klebsiella pneumoniae; [4]): 15 ppm
Qb, calc. (MIC of methylisothiazolinone in the mixture employed) (Aspergillus terreus; [3]): 7.5 ppm
QB, meas. (MIC of methylisothiazolinone) (Aspergillus terreus; [4]): 100 ppm
Qb, calc. (MIC of methylisothiazolinone in the mixture employed) (Staphylococcus aureus; [3]): 25 ppm
QB, meas. (MIC of methylisothiazolinone) (Staphylococcus aureus; [4]): 40 ppm
Qb, calc. (MIC of methylisothiazolinone in the mixture employed) (Fusarium solani; [3]): 7.5 ppm
QB, meas. (MIC of methylisothiazolinone) (Fusarium solani; [4]): 100 ppm
Qb, calc. (MIC of methylisothiazolinone in the mixture employed) (Candida albicans; [3]): 10 ppm
QB, meas. (MIC of methylisothiazolinone) (Candida albicans; [4]): 100 ppm
Qb, calc. (MIC of methylisothiazolinone in the mixture employed) (Penicillium funicolosium; [3]): 7.5 ppm
QB, meas. (MIC of methylisothiazolinone) (Penicillium funicolosium; [4]): 100 ppm
Qb, calc. (MIC of methylisothiazolinone in the mixture employed) (Proteus vulgaris; [3]): 5 ppm
QB, meas. (MIC of methylisothiazolinone) (Proteus vulgaris; [4]): 5 ppm

Molecule: isosorbide monocaprylate
antimicrobial activity (in words) ([2]; concluded from Tables 1 and 2): significant antimicrobial activity
